Laboratory results published in US20070099877A1, “N-aryl-thienopyrimidin-4-amines and analogs as activators of caspases and inducers of apoptosis and the use thereof” (Cytovia, Inc., priority 2005, published 2007).
Counter-ions that a name gives are not always drawn.

Columns and labels:
[1] = tested on: human lung cancer cell line H1299; assay: Inhibition of cell proliferation (GI50) in H1299 cells; format: cell-based; settings: NCI-H1299, Table III, 48 h
Protocol: Human breast cancer cell lines T-47D, MX-1 and MDAMB435, human colon cancer cell line HT29, and human lung cancer cell line H1299 were grown and harvested as in Example 75. An aliquot of […] of cells (4.4×10^4 cells/mL) was added to a well of a 96-well microtiter plate containing 5 μL of a 10% DMSO in RPMI-1640 media solution containing 10 nM to 100 μM of N-(2,5-dimethoxyphenyl)-2-methylthieno[3,2-d]pyrimidin-4-amine (1 nM to 10 μM final). An aliquot of 45 μL of cells was added to a well of a 96-well microtiter plate containing 5 μL of a 10% DMSO in RPMI-1640 media solution without compound as the control sample for maximal cell proliferation (Lmax). The samples were mixed by agitation and then incubated at 37° C. for 48 h in a 5% CO2-95% humidity incubator. After incubation, the samples were removed from the incubator and 25 μL of CellTiter-Glo™ reagent (Promega) was added. The samples were mixed by agitation and incubated at room temperature for 10-15 min. Plates were then read using a luminescent plate reader (Model SPECTRAfluor Plus, Tecan) to give Ltest values.
Baseline for GI50 (dose for 50% inhibition of cell proliferation) of initial cell numbers was determined by adding an aliquot of 45 μL of cells or 45 μL of media, respectively, to wells of a 96-well microtiter plate containing 5 μL of a 10% DMSO in RPMI-1640 media solution. The samples were mixed by agitation and then incubated at 37° C. for 0.5 h in a 5% CO2-95% humidity incubator. After incubation, the samples were removed from the incubator and 25 μL of CellTiter-Glo™ reagent (Promega) was added. The samples were mixed by agitation and incubated at 37° C. for 10-15 min at room temperature in a 5% CO2-95% humidity incubator. Fluorescence was read as above, (LStart) defining luminescence for initial cell number used as baseline in GI50 determinations.
GI50 (dose for 50% inhibition of cell proliferation) is the concentration where [(LTest−Lstart)/(LMax−Lstart)]=0.5.

[2] = tested on: human B cell lymphoblastoid cell line Ramos; assay: Caspase cascade activation in Ramos cells; format: cell-based; settings: 48 h, read-out: Caspase Activation Potency EC50 Ramos

| GI50 [1] [nM] | EC50 [2] [nM] | Compound |
| --- | --- | --- |
| 1040 |  | COc1ccc(OC)c(Nc2ncnc3ccsc23)c1 [Example 2, N-(2,5-Dimethoxyphenyl)thieno[3,2-d]pyrimidin-4-amine] |
|  | 582 | COc1cc(Nc2ncnc3ccsc23)cc(OC)c1 [Example 12, N-(3,5-Dimethoxyphenyl)thieno[3,2-d]pyrimidin-4-amine hydrochloride] |
